# Legend:
# Test in all cases: in vitro antifungal test, Z. tritici spore suspension in PDB
# Assay type in all cases: cell-based
# [1] = system: K5544 Zymoseptoria tritici (WT); details: isolate K5544 (WT); growth at 3 days post exposure; average of two replicates
# Experimental: (§1) A panel of 16 Zymoseptoria tritici isolates was subjected to in vitro antifungal tests. Spore suspensions of Z. tritici isolates were prepared in potato dextrose broth (PDB) and exposed to defined concentration ranges of the inhibitors (20ppm starting concentration, dilution steps of 3). A sensitive wild-type isolate was used together with a panel of strains containing variants of the Z. tritici CYP51 gene conferring resistance to DMI fungicides. The DMI-resistant isolates were isolated from wheat in the UK, Ireland, Germany and Russia in 2020. Determination of CYP51 gene variants was achieved using targeted gene sequencing. The half maximal effective concentration (EC50) of the inhibitors were calculated based on growth responses of Z. tritici at 3 days post exposure to the different concentrations of the […] using a linear regression. The Tables A and B show an average of EC50 values in ppm from two replicates, as well as M=(EC50 (enantiomer)/EC50 (racemate))−0.5.
# [2] = system: K9020 Zymoseptoria tritici CYP51 L50S V136A I381V Y461S S524T; details: isolate K9020; growth at 3 days post exposure; average of two replicates
# Experimental: as §1
# [3] = system: K9021 Zymoseptoria tritici CYP51 L50S V136A I381V Y461S S524T; details: isolate K9021; growth at 3 days post exposure; average of two replicates
# Experimental: as §1
# [4] = system: K9022 Zymoseptoria tritici CYP51 L50S V136A I381V Y461S S524T; details: isolate K9022; growth at 3 days post exposure; average of two replicates
# Experimental: as §1
# [5] = system: K9023 Zymoseptoria tritici CYP51 L50S V136C S188N A379G I381V YG459 S524T; details: growth at 3 days post exposure, average of two replicates
# Experimental: as §1
# [6] = system: K9026 Zymoseptoria tritici CYP51 L50S S188N A379G I381V YG459 N513K; details: growth at 3 days post exposure, average of two replicates
# Experimental: as §1
# [7] = system: K9029 Zymoseptoria tritici CYP51 L50S I381V YG459 N513K; details: growth at 3 days post exposure, average of two replicates
# Experimental: as §1
# [8] = system: K9032 Zymoseptoria tritici CYP51 L50S D134G V136A I381V Y461H S524T; details: growth at 3 days post exposure, average of two replicates
# Experimental: as §1
SMILES,EC50 (ppm) [1] [ppm],EC50 (ppm) [2] [ppm],EC50 (ppm) [3] [ppm],EC50 (ppm) [4] [ppm],"EC50 (ppm) ([5]; isolate K9023, 2nd listed row)","EC50 (ppm) ([5]; isolate K9023, 3rd listed row)",EC50 (ppm) ([5]; isolate K9023),"EC50 (ppm) ([6]; isolate K9026, 1st listed row)","EC50 (ppm) ([6]; isolate K9026, 2nd listed row)","EC50 (ppm) ([6]; isolate K9026, 3rd listed row)","EC50 (ppm) ([7]; isolate K9029, 1st listed row)","EC50 (ppm) ([7]; isolate K9029, 2nd listed row)","EC50 (ppm) ([7]; isolate K9029, 3rd listed row)","EC50 (ppm) ([8]; isolate K9032, 1st listed row)","EC50 (ppm) ([8]; isolate K9032, 2nd listed row)","EC50 (ppm) ([8]; isolate K9032, 3rd listed row)"
"COC(=O)C(O)(Cn1cncn1)c1ccc(Oc2ccc(Cl)cc2)cc1Cl (single isomer, unassigned; (+)) [(+)-enantiomer of Compound I-1, (+)Methyl 2-[2-chloro-4-(4-chlorophenoxy)phenyl]-2-hydroxy-3-(1,2,4-triazol-1-yl)propanoate]",1,2,5,20,9,19,20,20,5,3,20,20,20,12,7,8
COC(=O)C(O)(Cn1cncn1)c1ccc(Oc2ccc(Cl)cc2)cc1C(F)(F)F (racemic) [Racemate Compound I-2],0.03,0.03,0.09,0.7,0.1,0.3,0.3,6,0.07,0.07,0.8,3,10,0.2,0.1,0.1
COC(=O)C(O)(Cn1cncn1)c1ccc(Oc2ccc(Cl)cc2)cc1Cl (racemic) [Racemate Compound I-1],0.03,0.03,0.09,0.6,0.2,0.4,0.5,10,0.1,0.1,0.8,3,10,0.2,0.1,0.1

# Source: patent publication US20250344697A1, “ENANTIOMERICALLY ENRICHED […] THE CONTROL OF RESISTANT PHYTOPATHOGENIC FUNGI” (SYNGENTA CROP PROTECTION AG, priority 2022, published 2025)
